# According to patent publication US10711004B2 (Genentech, Inc., priority 2018, dated 2020):
# Read-outs that look alike come from different tables or passages of the source.
# Biological target: human TRPA1 channel (Homo sapiens (Human), UniProt O75762)
# Test: hTRPA1 CHO Ca2+ FLIPR Tetra assay, block of cinnamaldehyde induced calcium influx
# Format: cell-based
# Conditions: CHO cells expressing TRPA1, Hill coefficient fixed to 1.5
# Method in brief: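 IC50 values come from fixed-Hill fits of inhibition of cinnamaldehyde-induced (about EC50 level) calcium influx measured by FLIPR Tetra. Before agonist, TRPA1-expressing CHO cells loaded with calcium indicator were exposed to compound for 10 or 90 min at room temperature in HEPES-buffered HBSS, pH 7.4, with 0.02% BSA.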
# [1] = read-out: hTRPA1 IC50 (10 min), compounds incubated 10 minutes at room temperature before cinnamaldehyde agonist
# [2] = read-out: hTRPA1 IC50 (90 min), compounds incubated 90 minutes at room temperature before cinnamaldehyde agonist
# human TRPA1 channel, sequence (O75762 whole entry): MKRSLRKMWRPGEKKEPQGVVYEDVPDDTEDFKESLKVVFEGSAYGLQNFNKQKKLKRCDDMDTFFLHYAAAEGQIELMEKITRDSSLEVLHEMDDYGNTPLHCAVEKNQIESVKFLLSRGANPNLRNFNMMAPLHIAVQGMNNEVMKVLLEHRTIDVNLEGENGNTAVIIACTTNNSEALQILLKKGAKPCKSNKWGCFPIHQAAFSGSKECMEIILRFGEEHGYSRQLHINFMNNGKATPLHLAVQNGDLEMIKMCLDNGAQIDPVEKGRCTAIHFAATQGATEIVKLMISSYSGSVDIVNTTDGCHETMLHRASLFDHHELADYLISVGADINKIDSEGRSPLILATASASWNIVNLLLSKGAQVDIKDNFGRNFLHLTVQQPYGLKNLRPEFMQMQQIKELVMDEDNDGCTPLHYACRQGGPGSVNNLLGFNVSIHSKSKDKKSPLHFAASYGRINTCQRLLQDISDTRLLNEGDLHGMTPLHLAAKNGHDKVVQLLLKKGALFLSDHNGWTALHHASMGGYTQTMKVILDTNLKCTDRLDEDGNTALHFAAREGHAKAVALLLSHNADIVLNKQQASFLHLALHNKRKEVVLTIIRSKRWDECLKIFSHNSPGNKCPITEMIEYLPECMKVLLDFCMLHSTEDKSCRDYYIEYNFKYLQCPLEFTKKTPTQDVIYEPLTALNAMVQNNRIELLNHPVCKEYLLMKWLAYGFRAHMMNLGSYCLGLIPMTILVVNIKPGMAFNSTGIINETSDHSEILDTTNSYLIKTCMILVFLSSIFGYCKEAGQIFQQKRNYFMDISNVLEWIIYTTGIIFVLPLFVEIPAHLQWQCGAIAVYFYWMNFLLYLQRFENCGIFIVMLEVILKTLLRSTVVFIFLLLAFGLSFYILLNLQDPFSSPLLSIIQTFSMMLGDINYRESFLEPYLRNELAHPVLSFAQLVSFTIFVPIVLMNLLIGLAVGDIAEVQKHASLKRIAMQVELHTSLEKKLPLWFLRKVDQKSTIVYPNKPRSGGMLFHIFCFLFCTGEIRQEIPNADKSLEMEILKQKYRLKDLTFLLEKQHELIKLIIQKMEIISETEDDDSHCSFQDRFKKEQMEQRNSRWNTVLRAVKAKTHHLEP
Compound,IC50 [1],IC50 [2],other results
"Cn1cnc2ncn(Cc3nc([C@H]4[C@@H]5C=C(c6ccncc6)C[C@@H]54)no3)c(=O)c21 [Example Compound 126, 7-methyl-1-((3-((1S,5S,6R)-3-(pyridin-4-yl)bicyclo[3.1.0]hex-2-en-6-yl)-1,2,4-oxadiazol-5-yl)methyl)-1,7-dihydro-6H-purin-6-one]",0.189 µM,0.096 µM,–
"Cn1cnc2ncn(Cc3nc([C@H]4C[C@H](Oc5cccc(C#N)c5)C4)no3)c(=O)c21 [Example Compound 178, 3-((1r,3r)-3-(5-((7-methyl-6-oxo-6,7-dihydro-1H-purin-1-yl)methyl)-1,2,4-oxadiazol-3-yl)cyclobutoxy)benzonitrile]",0.0815 µM,–,–
"Cn1cnc2ncn(Cc3nc([C@H]4[C@@H]5Cc6ccccc6[C@@H]54)no3)c(=O)c21 (stereo in doubt) [Example Compound 3, 7-methyl-1-[[3-[rac-(1S,1aS,6aR)-1,1a,6,6a-tetrahydrocyclopropa[a]inden-1-yl]-1,2,4-oxadiazol-5-yl]methyl]purin-6-one]",–,–,IC50 (compounds incubated 10 minutes at room temperature before cinnamaldehyde agonist): 0.588 µM
"O=c1c2cccnc2ncn1Cc1nc([C@H]2C[C@H](Oc3cccc(F)c3)C2)no1 [Example Compound 147, 3-((3-((1r,3r)-3-(3-fluorophenoxy)cyclobutyl)-1,2,4-oxadiazol-5-yl)methyl)pyrido[2,3-d]pyrimidin-4(3H)-one]",0.232 µM,0.14 µM,–
"Cn1cnc2ncn(Cc3nc([C@H]4[C@@H]5CN(c6cccc(F)c6F)C[C@@H]54)no3)c(=O)c21 [Example Compound 100, 1-((3-((1R,5S,6r)-3-(2,3-difluorophenyl)-3-azabicyclo[3.1.0]hexan-6-yl)-1,2,4-oxadiazol-5-yl)methyl)-7-methyl-1,7-dihydro-6H-purin-6-one]",0.0128 µM,0.0025 µM,–
"Cn1cnc2ncn(Cc3nc([C@H]4[C@@H]5CN(c6cccc(-c7ccncc7)c6)C[C@@H]54)no3)c(=O)c21 [Example Compound 201, 7-methyl-1-((3-((1R,5S,6r)-3-(3-(pyridin-4-yl)phenyl)-3-azabicyclo[3.1.0]hexan-6-yl)-1,2,4-oxadiazol-5-yl)methyl)-1,7-dihydro-6H-purin-6-one]",0.067 µM,0.066 µM,–
"Cn1cnc2ncn(Cc3nc([C@@H]4[C@H]5C=C(c6ccccc6)[C@@H](O)[C@H]54)no3)c(=O)c21 [Example Compound 250, 7-methyl-1-[[3-[(1R,4S,5R,6R)-4-hydroxy-3-phenyl-6-bicyclo[3.1.0]hex-2-enyl]-1,2,4-oxadiazol-5-yl]methyl]purin-6-one]",0.312 µM,0.04 µM,–
"Cn1nnc2ncn(Cc3nc([C@H]4[C@@H]5CN(c6cccc(Cl)c6)C[C@@H]54)no3)c(=O)c21 [Example Compound 139, 6-((3-((1R,5S,6r)-3-(3-chlorophenyl)-3-azabicyclo[3.1.0]hexan-6-yl)-1,2,4-oxadiazol-5-yl)methyl)-1-methyl-1,6-dihydro-7H-[1,2,3]triazolo[4,5-d]pyrimidin-7-one]",0.0106 µM,0.0036 µM,–
Cn1cnc2ncn(Cc3nc([C@H]4[C@@H]5CN(c6ccc7c(cnn7C)c6)C[C@@H]54)no3)c(=O)c21,0.141 µM,–,–
"Cn1c(=O)c2c(ncn2Cc2nc([C@H]3[C@@H]4CN(c5cccc(Cl)c5)C[C@@H]43)no2)n(C)c1=O [Example Compound 215, 7-((3-((1R,5S,6r)-3-(3-chlorophenyl)-3-azabicyclo[3.1.0]hexan-6-yl)-1,2,4-oxadiazol-5-yl)methyl)-1,3-dimethyl-3,7-dihydro-1H-purine-2,6-dione]",0.0565 µM,–,–
"Cn1cnc2ncn(Cc3nc([C@H]4[C@@H]5C=C(c6ccc(F)cc6F)C[C@@H]54)no3)c(=O)c21 [Example Compound 269, 7-methyl-1-[[3-[(1S,5S,6R)-3-(2,4-difluorophenyl)-6-bicyclo[3.1.0]hex-2-enyl]-1,2,4-oxadiazol-5-yl]methyl]purin-6-one]",0.00696 µM,0.0046 µM,–
"Cn1cnc2ncn(Cc3nc([C@@H]4[C@H]5C=C(c6cccc(F)c6F)C[C@H]54)no3)c(=O)c21 [Example Compound 282, 7-methyl-1-[[3-[(1R,5R,6S)-3-(2,3-difluorophenyl)-6-bicyclo[3.1.0]hex-2-enyl]-1,2,4-oxadiazol-5-yl]methyl]purin-6-one]",–,–,"IC50 (read-out: hTRPA1 IC50 (10 min), compounds incubated 10 minutes at room temperature before cinnamaldehyde agonist, listed as 282): 0.0169 µM; IC50 (read-out: hTRPA1 IC50 (90 min), compounds incubated 90 minutes at room temperature before cinnamaldehyde agonist, listed as 282): 0.0031 µM"
"O=c1c2cccnc2cnn1Cc1nc([C@H]2[C@@H]3CN(c4cccc(F)c4)C[C@@H]32)no1 [Example Compound 96, 6-((3-((1R,5S,6r)-3-(3-fluorophenyl)-3-azabicyclo[3.1.0]hexan-6-yl)-1,2,4-oxadiazol-5-yl)methyl)pyrido[2,3-d]pyridazin-5(6H)-one]",0.00839 µM,0.0051 µM,–
"O=c1c2cccnc2ncn1Cc1nc([C@H]2[C@@H]3CN(c4ccc(Cl)cn4)C[C@@H]32)no1 [Example Compound 151, 3-((3-((1R,5S,6r)-3-(5-chloropyridin-2-yl)-3-azabicyclo[3.1.0]hexan-6-yl)-1,2,4-oxadiazol-5-yl)methyl)pyrido[2,3-d]pyrimidin-4(3H)one]",0.04 µM,0.038 µM,–
"O=c1c2cccnc2ncn1Cc1nc([C@@H]2[C@H]3C=C(c4cc(Cl)ccn4)C[C@H]32)no1 [Example Compound 162, 3-((3-((1R,5R,6S)-3-(4-chloropyridin-2-yl)bicyclo[3.1.0]hex-2-en-6-yl)-1,2,4-oxadiazol-5-yl)methyl)pyrido[2,3-d]pyrimidin-4(3H)-one]",0.132 µM,0.088 µM,–
"1-((3-((1r,3r)-3-((3-chlorophenyl)difluoromethyl) cyclobutyl)-1,2,4-oxadiazol-5-yl)methyl)-7-methyl-1,7-dihydro-6H-purin-6-one [Example Compound 81]",0.143 µM,–,–

# Now from value to compound, other results behind:
IC50 [1],IC50 [2],Compound,other results
0.496 µM,0.086 µM,"Cn1cnc2ncn(Cc3nc([C@H]4[C@@H]5CN(c6ccc(Cl)cn6)C[C@@H]54)no3)c(=O)c21 [Example Compound 205, 1-((3-((1R,5S,6r)-3-(5-chloropyridin-2-yl)-3-azabicyclo[3.1.0]hexan-6-yl)-1,2,4-oxadiazol-5-yl)methyl)-7-methyl-1,7-dihydro-6H-purin-6-one]",–
0.313 µM,–,"Cn1cnc2ncn(Cc3nc([C@H]4C[C@](F)(c5ccc(F)cc5)C4)no3)c(=O)c21 [Example Compound 206, 1-((3-((1s,3s)-3-fluoro-3-(4-fluorophenyl)cyclobutyl)-1,2,4-oxadiazol-5-yl)methyl)-7-methyl-1,7-dihydro-6H-purin-6-one]",–
0.0546 µM,–,"Cn1cnc2ncn(Cc3nc([C@H]4C[C@H](c5ccc(F)c(Cl)c5)C4)no3)c(=O)c21 [Example Compound 220, 1-((3-((1r,3r)-3-(3-chloro-4-fluorophenyl)cyclobutyl)-1,2,4-oxadiazol-5-yl)methyl)-7-methyl-1,7-dihydro-6H-purin-6-one]",–
0.0228 µM,–,"Cc1cncc2ncn(Cc3nc([C@H]4C[C@](F)(c5ccc(Cl)cc5)C4)no3)c(=O)c12 [Example Compound 37, 3-((3-((1s,3s)-3-(4-chlorophenyl)-3-fluorocyclobutyl)-1,2,4-oxadiazol-5-yl)methyl)-5-methylpyrido[3,4-d]pyrimidin-4(3H)-one]",–
0.0213 µM,–,"Cc1ccnc2ncn(Cc3nc([C@H]4C[C@H](c5ccc(Cl)cc5)C4)no3)c(=O)c12 [Example Compound 17, 3-((3-((trans)-3-(4-chlorophenyl)cyclobutyl)-1,2,4-oxadiazol-5-yl)methyl)-5-methylpyrido[2,3-d]pyrimidin-4(3H)-one]",–
0.111 µM,–,Cn1cnc2ncn(Cc3nc([C@H]4[C@@H]5CN(c6ccc7c(c6)CCC7)C[C@@H]54)no3)c(=O)c21,–
0.043 µM,0.03 µM,"Cc1noc2ncn(Cc3nc([C@H]4[C@@H]5CN(c6cc(Cl)ccn6)C[C@@H]54)no3)c(=O)c12 [Example Compound 104, 5-((3-((1R,5S,6r)-3-(4-chloropyridin-2-yl)-3-azabicyclo[3.1.0]hexan-6-yl)-1,2,4-oxadiazol-5-yl)methyl)-3-methylisoxazolo[5,4-d]pyrimidin-4(5H)-one]",–
0.049 µM,0.0091 µM,"Cc1cc(C#N)nc2ncn(Cc3nc([C@H]4[C@@H]5CN(c6cc(Cl)ccn6)C[C@@H]54)no3)c(=O)c12 [Example Compound 107, 3-((3-((1R,5S,6r)-3-(4-chloropyridin-2-yl)-3-azabicyclo[3.1.0]hexan-6-yl)-1,2,4-oxadiazol-5-yl)methyl)-5-methyl-4-oxo-3,4-dihydropyrido[2,3-d]pyrimidine-7-carbonitrile]",–
0.0205 µM,–,Cn1cnc2ncn(Cc3nc([C@H]4[C@@H]5CN(c6cc(F)cc(Cl)c6)C[C@@H]54)no3)c(=O)c21,–
0.0893 µM,0.073 µM,"Cn1ncc2ncn(Cc3nc([C@H]4[C@@H]5CN(c6cc(Cl)ccn6)C[C@@H]54)no3)c(=O)c21 [Example Compound 155, 6-((3-((1R,5S,6r)-3-(4-chloropyridin-2-yl)-3-azabicyclo[3.1.0]hexan-6-yl)-1,2,4-oxadiazol-5-yl)methyl)-1-methyl-1,6-dihydro-7H-pyrazolo[4,3-d]pyrimidin-7-one]",–
0.036 µM,0.024 µM,"Cn1cnc2ncn(Cc3nc([C@H]4[C@@H]5C=C(c6ccc7scnc7c6)C[C@@H]54)no3)c(=O)c21 [Example Compound 112, 1-((3-((1S,5S,6R)-3-(benzo[d]thiazol-5-yl)bicyclo[3.1.0]hex-2-en-6-yl)-1,2,4-oxadiazol-5-yl)methyl)-7-methyl-1,7-dihydro-6H-purin-6-one]",–
